Values quoted from earlier work as cited in publication PMC5992566 (Nanomedicine, 2018).

Settings: after a single parenteral dose

- Half-life: 21 to 50 days
Structure (SMILES): C[C@H]1CO[C@@H]2Cn3cc(C(=O)NCc4ccc(F)cc4F)c(=O)c(O)c3C(=O)N12 [Cabotegravir, cabotegravir]
